pIC50: −log10 of the molar value.
System: 496974-208-R-J2-PDC complex spheroids, growth % test/control
Assay: Anticancer human tumor 496974-208-R-J2-PDC patient-derived pancreatic carcinoma cell line growth inhibition [CLK]
Conditions: for pIC50: curve of first compound; for viability, T/C: stronger effect = lower value
Excerpt: A high-throughput screen of multi-cell type tumor spheroids was designed to identify active combinations of […] and targeted small molecules. Complex spheroids include a stromal component modeled by human endothelial cells (HUVEC) and fibroblasts modeled by human mesenchymal stem cells (MSCs). The concentration ranges selected for each drug and investigational agent were based upon clinically achievable concentrations if the clinical Cmax of the agent was known.
Compounds. The drugs and investigational agents: cirtuvivint (SM08502; NSC835563), CC-671 (NSC850746), vemurafenib (NSC761431), tapotoclax (NSC804041), sotorasib (NSC818433), adagrasib (NSC831453), MRTX-1133 (NSC836407), BAY2416964 (NSC825713), copanlisib (NSC816437), inavolisib (NSC800729), abemaciclib (NSC768073), osimertinib (NSC779217), entinostat (NSC756642), eltanexor (KPT-8602, NSC794443), venetoclax (NSC766270), ceralasertib (NSC777638), bortezomib (NSC756655), olaparib (NSC753686), talazoparib (NSC767125), alisertib (NSC759677), peposertib (NSC802822), gemcitabine (NSC613327), 5-fluorouracil (NSC19893), SN-38 (NSC673596), oxaliplatin (NSC266046), paclitaxel (NSC125973), and doxorubicin (NSC123127), were obtained from the National Cancer Institute (NCI) Developmental Therapeutics Program Chemical Repository. The FDA-approved anticancer drug set is available from the Developmental Therapeutics Program at https://dtp.cancer.gov/organization/dscb/obtaining/available plates.htm. […] The stock solutions were prepared in dimethyl sulfoxide (DMSO, Sigma-Aldrich, St. Louis, MO, cat. D2650), except for the platinum complexes which were prepared in saline (Quality Biological, Gaithersburg, MD, cat. 114-055-101), at 800-fold the tested concentration and stored at -70 degrees C prior to their use. All drugs and investigational agents were tested over a range starting from a high concentration at or near the clinical Cmax and decreasing in half-log increments. If the clinical Cmax for an agent had not been determined, the highest concentration tested was 10 microM.
Cell Culture. All cells were maintained in an incubator at 37 degrees C and 5% CO2 with 95% humidity. The PDC lines were cultured according to standard operating procedures established by the NCI PDMR. Briefly, all PDCs were thawed and cultured in Matrigel-coated flasks prepared with a working solution of 1X Ham's F-12 nutrient mix, without supplementation (Invitrogen, Waltham, MA, cat. 11765054), 100 U/mL penicillin-streptomycin (Invitrogen, cat. 15140122), and 2.5% Matrigel (Corning Inc., Corning, NY, cat. 354248) for the first three passages. The 947758-054-R-J2-PDC line was cultured in 6B/Colon 1A media, which includes advanced DMEM/F-12 (Thermo Fisher Scientific, cat. 12634028), 10 mM HEPES (Thermo Fisher Scientific, cat. 15630080), 1X GlutaMAX supplement (Thermo Fisher Scientific, cat. 35050061), 0.1 mg/mL primocin (InvivoGen, cat. ant-pm-2), 10% defined fetal bovine serum, heat inactivated (HyClone Laboratories Inc., cat. SH30070.03HI), 1.25 mM N-Acetyl-L-cysteine (Sigma-Aldrich, cat. A9165), 10 mM nicotinamide (Sigma-Aldrich, cat. N0636), 1X B-27 supplement (Thermo Fisher Scientific, cat. 17504044), 1X N-2 supplement (Thermo Fisher Scientific, cat. 17502048), and 10 microM Y-27632 dihydrochloride (Tocris Bioscience, cat. 1254). The 876862-298-R-J1-PDC was cultured in 6E media, which includes all 6B/Colon 1A media components plus 50% L-WRN conditioned media (ATCC, cat. CRL-3276), 50 ng/mL recombinant human EGF recombinant protein (hEGF; Thermo Fisher Scientific, cat. PHG0311), 10 ng/mL recombinant human fibroblast growth factor 10 (hGFG-10; PeproTech, cat. 100-26), 1 ng/mL recombinant human fibroblast growth factor 2 (hFGF-2; PeproTech, cat. 100-18B), and 1 µM prostaglandin E2 (PGE2; Tocris, cat. 2296). The 227483-062-R1-J1-PDC line was cultured in Panc media, containing all 6E components except hFGF-2, with the addition of 500 nM SB-431542 (Selleckchem, cat. S1067) and 10 nM gastrin (Tocris, cat. 3006). […]

[1] = second compound 0.0316 µM, first compound 0.0316 µM
[2] = second compound 0.0316 µM, first compound 0.1 µM
[3] = second compound 0.0316 µM, first compound 0.316 µM
[4] = second compound 0.0316 µM, first compound 1 µM
[5] = second compound 0.0316 µM, first compound 3.16 µM
[6] = second compound 0.0316 µM, first compound 10 µM
[7] = second compound 0.1 µM, first compound 0.0316 µM
[8] = second compound 0.1 µM, first compound 0.1 µM
[9] = second compound 0.1 µM, first compound 0.316 µM
[10] = second compound 0.1 µM, first compound 1 µM
[11] = second compound 0.1 µM, first compound 3.16 µM
[12] = second compound 0.1 µM, first compound 10 µM
[13] = second compound 0.316 µM, first compound 0.0316 µM
[14] = second compound 0.316 µM, first compound 0.1 µM
[15] = second compound 0.316 µM, first compound 0.316 µM
[16] = second compound 0.316 µM, first compound 1 µM
[17] = second compound 0.316 µM, first compound 3.16 µM
[18] = second compound 0.316 µM, first compound 10 µM
[19] = second compound 1 µM, first compound 0.0316 µM
[20] = second compound 1 µM, first compound 0.1 µM
[21] = second compound 1 µM, first compound 0.316 µM
[22] = second compound 1 µM, first compound 1 µM
[23] = second compound 1 µM, first compound 3.16 µM
[24] = second compound 1 µM, first compound 10 µM
[25] = second compound 3.16 µM, first compound 0.0316 µM
[26] = second compound 3.16 µM, first compound 0.1 µM
[27] = second compound 3.16 µM, first compound 0.316 µM
[28] = second compound 3.16 µM, first compound 1 µM
[29] = second compound 3.16 µM, first compound 3.16 µM
[30] = second compound 3.16 µM, first compound 10 µM
[31] = second compound 10 µM, first compound 0.0316 µM
[32] = second compound 10 µM, first compound 0.1 µM
[33] = second compound 10 µM, first compound 0.316 µM
[34] = second compound 10 µM, first compound 1 µM
[35] = second compound 10 µM, first compound 3.16 µM
[36] = second compound 10 µM, first compound 10 µM
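Further: spheroids exposed to the drugs for 7 days before readout.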
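Wherever viability, T/C is given: 100% = DMSO vehicle control wells.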

## C#Cc1c(F)ccc2cc(O)cc(-c3ncc4c(N5CC6CCC(C5)N6)nc(OCC56CCCN5CC(F)C6)nc4c3F)c12 (stereo unspecified) + CN1CCN(c2cc(C(=O)Nc3cc4cc(-c5cnn(C)c5)ccc4cn3)ccn2)CC1
Second compound 0.0316 µM
  pIC50: 7.31
Second compound 0.1 µM
  pIC50: > 7.50
Second compound 0.316 µM
  pIC50: > 7.50
Second compound 1 µM
  pIC50: > 7.50
Second compound 3.16 µM
  pIC50: > 7.50
Second compound 10 µM
  pIC50: > 7.50
[1]
  viability, T/C: 54.9%
[2]
  viability, T/C: 41.2%
[3]
  viability, T/C: 39.9%
[4]
  viability, T/C: 37.2%
[5]
  viability, T/C: 33.5%
[6]
  viability, T/C: 35.1%
[7]
  viability, T/C: 37.7%
[8]
  viability, T/C: 34.7%
[9]
  viability, T/C: 30.2%
[10]
  viability, T/C: 25.8%
[11]
  viability, T/C: 25.2%
[12]
  viability, T/C: 22.8%
[13]
  viability, T/C: 6.34%
[14]
  viability, T/C: 7.18%
[15]
  viability, T/C: 5.55%
[16]
  viability, T/C: 5.05%
[17]
  viability, T/C: 4.85%
[18]
  viability, T/C: 4.28%
[19]
  viability, T/C: 0.24%
[20]
  viability, T/C: 1.36%
[21]
  viability, T/C: 0.31%
[22]
  viability, T/C: 0.34%
[23]
  viability, T/C: 0.22%
[24]
  viability, T/C: 0.33%
[25]
  viability, T/C: 0.26%
[26]
  viability, T/C: 1.39%
[27]
  viability, T/C: 0.4%
[28]
  viability, T/C: 0.27%
[29]
  viability, T/C: 0.23%
[30]
  viability, T/C: 1.06%
[31]
  viability, T/C: 0.28%
[32]
  viability, T/C: 0.2%
[33]
  viability, T/C: 0.22%
[34]
  viability, T/C: 0.2%
[35]
  viability, T/C: 0.21%
[36]
  viability, T/C: 1.87%

## C=C(F)C(=O)N1CCN(c2nc(OCC3CCCN3C)nc3c2CCN(c2cccc4cccc(Cl)c24)C3)CC1CC#N (stereo unspecified) + CN1CCN(c2cc(C(=O)Nc3cc4cc(-c5cnn(C)c5)ccc4cn3)ccn2)CC1
Second compound 0.0316 µM
  pIC50: 5.27
Second compound 0.1 µM
  pIC50: 5.35
Second compound 0.316 µM
  pIC50: > 7.50
Second compound 1 µM
  pIC50: > 7.50
Second compound 3.16 µM
  pIC50: > 7.50
Second compound 10 µM
  pIC50: > 7.50
[1]
  viability, T/C: 107%
[2]
  viability, T/C: 106%
[3]
  viability, T/C: 89.9%
[4]
  viability, T/C: 117%
[5]
  viability, T/C: 88.8%
[6]
  viability, T/C: 3.02%
[7]
  viability, T/C: 86.1%
[8]
  viability, T/C: 88.8%
[9]
  viability, T/C: 75.8%
[10]
  viability, T/C: 86.6%
[11]
  viability, T/C: 70.8%
[12]
  viability, T/C: 0.72%
[13]
  viability, T/C: 7.07%
[14]
  viability, T/C: 8.92%
[15]
  viability, T/C: 8.59%
[16]
  viability, T/C: 7.85%
[17]
  viability, T/C: 6.67%
[18]
  viability, T/C: 1.1%
[19]
  viability, T/C: 0.58%
[20]
  viability, T/C: 0.48%
[21]
  viability, T/C: 1.51%
[22]
  viability, T/C: 0.33%
[23]
  viability, T/C: 1.52%
[24]
  viability, T/C: 2.06%
[25]
  viability, T/C: 0.33%
[26]
  viability, T/C: 0.52%
[27]
  viability, T/C: 1.57%
[28]
  viability, T/C: 0.45%
[29]
  viability, T/C: 0.2%
[30]
  viability, T/C: 1.09%
[31]
  viability, T/C: 0.35%
[32]
  viability, T/C: 0.35%
[33]
  viability, T/C: 0.31%
[34]
  viability, T/C: 0.32%
[35]
  viability, T/C: 0.74%
[36]
  viability, T/C: 0.22%

## CC(CO)NC(=O)c1cc(-c2ccc(Cl)cc2)nn(-c2cnn(C)c2)c1=O (stereo unspecified) + CN1CCN(c2cc(C(=O)Nc3cc4cc(-c5cnn(C)c5)ccc4cn3)ccn2)CC1
Second compound 0.0316 µM
  pIC50: < 5.00
Second compound 0.1 µM
  pIC50: < 5.00
Second compound 0.316 µM
  pIC50: > 7.50
Second compound 1 µM
  pIC50: > 7.50
Second compound 3.16 µM
  pIC50: > 7.50
Second compound 10 µM
  pIC50: > 7.50
[1]
  viability, T/C: 100%
[2]
  viability, T/C: 103%
[3]
  viability, T/C: 104%
[4]
  viability, T/C: 97.6%
[5]
  viability, T/C: 79.8%
[6]
  viability, T/C: 53.3%
[7]
  viability, T/C: 80.9%
[8]
  viability, T/C: 90.1%
[9]
  viability, T/C: 73.7%
[10]
  viability, T/C: 80%
[11]
  viability, T/C: 71.3%
[12]
  viability, T/C: 55%
[13]
  viability, T/C: 6.47%
[14]
  viability, T/C: 7.73%
[15]
  viability, T/C: 7.09%
[16]
  viability, T/C: 6.92%
[17]
  viability, T/C: 7.31%
[18]
  viability, T/C: 10.6%
[19]
  viability, T/C: 0.48%
[20]
  viability, T/C: 0.63%
[21]
  viability, T/C: 0.82%
[22]
  viability, T/C: 0.41%
[23]
  viability, T/C: 0.57%
[24]
  viability, T/C: 3.08%
[25]
  viability, T/C: 0.49%
[26]
  viability, T/C: 0.49%
[27]
  viability, T/C: 0.55%
[28]
  viability, T/C: 0.4%
[29]
  viability, T/C: 1%
[30]
  viability, T/C: 0.92%
[31]
  viability, T/C: 0.3%
[32]
  viability, T/C: 0.27%
[33]
  viability, T/C: 1.54%
[34]
  viability, T/C: 0.29%
[35]
  viability, T/C: 0.35%
[36]
  viability, T/C: 1.18%
